{"source": "patent US20250367166A1", "about": "“NEXT GENERATION DIPROVOCIMS THAT ACTIVATE THE INNATE AND ADAPTIVE IMMUNE RESPONSE” (The Scripps Research Institute, priority 2022, published 2025)", "key": {"[1]": {"molecular_target": "TLR1/TLR2 (Mus musculus, UniProt Q9EPQ1+Q9QUN7)", "sequence (Q9EPQ1 26-795)": "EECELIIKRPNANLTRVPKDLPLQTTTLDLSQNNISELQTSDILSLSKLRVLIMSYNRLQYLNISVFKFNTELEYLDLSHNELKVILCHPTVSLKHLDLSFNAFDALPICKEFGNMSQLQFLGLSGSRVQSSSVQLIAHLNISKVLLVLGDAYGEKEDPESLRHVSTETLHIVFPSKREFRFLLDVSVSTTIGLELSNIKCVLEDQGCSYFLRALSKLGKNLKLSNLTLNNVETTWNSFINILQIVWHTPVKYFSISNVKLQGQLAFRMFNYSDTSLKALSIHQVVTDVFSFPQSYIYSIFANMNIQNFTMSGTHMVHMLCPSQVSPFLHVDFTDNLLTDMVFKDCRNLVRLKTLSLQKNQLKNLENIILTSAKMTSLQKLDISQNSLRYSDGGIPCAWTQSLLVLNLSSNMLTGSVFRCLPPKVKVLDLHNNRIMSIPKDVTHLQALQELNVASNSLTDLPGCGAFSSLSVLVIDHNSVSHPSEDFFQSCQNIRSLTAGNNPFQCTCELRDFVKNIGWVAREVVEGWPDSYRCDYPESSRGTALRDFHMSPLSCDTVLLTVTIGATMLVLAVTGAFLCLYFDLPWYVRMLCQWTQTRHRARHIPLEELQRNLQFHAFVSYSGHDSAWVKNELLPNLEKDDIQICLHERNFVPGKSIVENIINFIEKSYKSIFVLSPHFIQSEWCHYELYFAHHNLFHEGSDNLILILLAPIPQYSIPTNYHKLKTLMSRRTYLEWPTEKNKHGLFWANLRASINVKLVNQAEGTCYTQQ", "sequence (Q9QUN7 25-784)": "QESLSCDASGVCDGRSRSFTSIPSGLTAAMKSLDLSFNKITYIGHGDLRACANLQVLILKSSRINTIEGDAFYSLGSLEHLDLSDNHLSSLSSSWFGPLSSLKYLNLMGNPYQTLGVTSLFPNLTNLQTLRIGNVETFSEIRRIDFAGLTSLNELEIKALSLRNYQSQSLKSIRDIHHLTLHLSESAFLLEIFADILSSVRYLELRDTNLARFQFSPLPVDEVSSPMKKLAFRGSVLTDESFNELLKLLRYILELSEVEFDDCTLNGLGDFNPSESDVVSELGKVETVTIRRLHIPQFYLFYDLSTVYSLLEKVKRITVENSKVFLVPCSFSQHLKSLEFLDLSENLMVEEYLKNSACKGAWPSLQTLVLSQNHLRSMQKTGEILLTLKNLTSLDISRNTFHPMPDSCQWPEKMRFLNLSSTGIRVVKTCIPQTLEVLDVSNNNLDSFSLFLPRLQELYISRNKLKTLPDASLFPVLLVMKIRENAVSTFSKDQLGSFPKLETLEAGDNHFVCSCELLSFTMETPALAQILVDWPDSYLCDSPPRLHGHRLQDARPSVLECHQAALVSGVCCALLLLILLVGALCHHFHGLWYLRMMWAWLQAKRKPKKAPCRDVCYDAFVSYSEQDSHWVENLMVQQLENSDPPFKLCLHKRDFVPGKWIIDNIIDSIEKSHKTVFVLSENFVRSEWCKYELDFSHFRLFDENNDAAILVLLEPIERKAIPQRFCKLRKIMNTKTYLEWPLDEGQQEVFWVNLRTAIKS", "experiment": "TNF-α release from thioglycolate-elicited mouse peritoneal macrophages (ELISA)", "details": "for Emax: 4 h, read-out: Efficacy (magnitude) of response versus diprovocim-1 (100%), mouse macrophages; for EC50: read-out: EC50 (nM) (mouse): EC50 TNF-α release from mouse macrophages"}, "[2]": {"molecular_target": "TLR1/TLR2 (Homo sapiens, UniProt O60603+Q15399)", "sequence (Q15399 25-786)": "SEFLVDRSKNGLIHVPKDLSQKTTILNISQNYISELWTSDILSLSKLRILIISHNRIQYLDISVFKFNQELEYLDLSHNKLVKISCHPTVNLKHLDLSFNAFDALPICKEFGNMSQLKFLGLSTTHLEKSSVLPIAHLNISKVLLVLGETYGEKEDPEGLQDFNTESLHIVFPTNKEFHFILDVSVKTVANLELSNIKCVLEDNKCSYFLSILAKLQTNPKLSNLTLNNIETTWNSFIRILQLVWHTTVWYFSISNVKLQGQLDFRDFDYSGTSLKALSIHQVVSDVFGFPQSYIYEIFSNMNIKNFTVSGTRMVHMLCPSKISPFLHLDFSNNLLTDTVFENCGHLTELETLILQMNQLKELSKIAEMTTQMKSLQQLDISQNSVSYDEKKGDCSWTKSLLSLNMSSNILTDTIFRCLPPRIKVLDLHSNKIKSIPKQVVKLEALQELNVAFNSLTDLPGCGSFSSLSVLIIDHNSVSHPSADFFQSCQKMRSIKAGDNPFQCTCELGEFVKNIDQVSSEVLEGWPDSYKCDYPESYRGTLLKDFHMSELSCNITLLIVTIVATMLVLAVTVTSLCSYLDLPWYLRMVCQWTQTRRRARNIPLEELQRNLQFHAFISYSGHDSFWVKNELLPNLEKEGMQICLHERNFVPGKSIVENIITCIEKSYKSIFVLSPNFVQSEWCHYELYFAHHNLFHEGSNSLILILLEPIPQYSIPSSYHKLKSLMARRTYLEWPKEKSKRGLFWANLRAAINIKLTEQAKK", "sequence (O60603 21-784)": "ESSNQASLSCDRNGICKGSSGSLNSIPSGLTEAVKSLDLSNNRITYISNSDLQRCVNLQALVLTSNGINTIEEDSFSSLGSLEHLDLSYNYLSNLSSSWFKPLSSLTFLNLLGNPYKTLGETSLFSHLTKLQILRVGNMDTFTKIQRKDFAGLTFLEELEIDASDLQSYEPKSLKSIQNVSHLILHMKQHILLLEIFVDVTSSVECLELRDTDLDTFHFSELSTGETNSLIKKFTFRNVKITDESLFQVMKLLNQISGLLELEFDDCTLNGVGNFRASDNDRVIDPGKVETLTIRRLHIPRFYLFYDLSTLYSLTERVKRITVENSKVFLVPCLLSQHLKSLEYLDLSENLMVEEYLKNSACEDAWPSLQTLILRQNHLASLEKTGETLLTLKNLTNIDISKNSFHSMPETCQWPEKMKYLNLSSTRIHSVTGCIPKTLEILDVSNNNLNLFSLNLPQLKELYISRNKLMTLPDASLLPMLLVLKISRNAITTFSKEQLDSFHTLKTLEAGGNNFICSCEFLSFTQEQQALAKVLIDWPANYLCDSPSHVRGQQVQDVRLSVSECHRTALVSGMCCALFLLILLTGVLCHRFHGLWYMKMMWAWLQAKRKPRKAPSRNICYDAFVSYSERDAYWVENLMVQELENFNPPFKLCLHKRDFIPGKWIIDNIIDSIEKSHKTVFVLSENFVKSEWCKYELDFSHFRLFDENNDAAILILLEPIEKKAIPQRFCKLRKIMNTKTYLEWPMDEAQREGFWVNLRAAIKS", "experiment": "TNF-α release from PMA-differentiated human THP-1 cells (ELISA);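 for all read-outs here: cells exposed to graded compound concentrations for 4 h, TNF-α quantified in supernatant, LPS as positive and DMSO as negative control, values are duplicate means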", "details": "for Emax: THP-1, 4 h, read-out: Efficacy (magnitude) of response versus diprovocim-1 (100%), THP-1; for EC50: read-out: EC50 (nM) (THP-1): EC50 TNF-α release from human THP-1 cells", "protocol": "THP-1 (American Type Culture Collection) cells, a human monocytic leukemia cell line, were differentiated by treatment with 100 nM PMA (Sigma) in Roswell Park Memorial Institute (RPMI) cell culture medium [RPMI containing 10% vol/vol FBS (Gemini Bio Products), 1% penicillin and streptomycin (Life Technologies)] for 24 h. After that, the cells were washed with PBS and cultured in fresh RPMI cell culture medium for 24 h before use in studies. PMA-differentiated THP-1 cells were seeded onto 96-well plates at 0.5×10^5 cells per well and treated with systematically varied concentrations of the candidate compounds (dissolved in DMSO, and the final assay DMSO concentration (0.1%) was kept constant in all experiments) for 4 h. Ultra-pure LPS (dissolved in H2O, Enzo Life Sciences) was assessed alongside the compounds as a positive control and DMSO treated control was used as a negative control. Human TNF-α in the supernatants was measured by ELISA (eBioscience). This assay was used for establishing dose-response curves and measured EC50's. EC50's were calculated by Graphpad Prism. All data is the mean of duplicates and SD is within +10% of mean."}}, "note": "Where two headings read alike, the source gives them in different places."}
{"smiles": "COC(=O)CCCCCCCCCCCNC(=O)[C@@H]1CN(C(=O)c2ccc(C(=O)N3C[C@@H](C(=O)N[C@H]4C[C@@H]4c4ccccc4)[C@H](C(=O)N[C@H]4C[C@@H]4c4ccccc4)C3)cc2)C[C@H]1C(=O)N[C@H]1C[C@@H]1c1ccccc1", "note": "[Compound 3, Methyl 12-((3S,4S)-1-(4-((3S,4S)-3,4-bis(((1S,2R)-2-phenylcyclopropyl)carbamoyl)pyrrolidine-1-carbonyl)-benzoyl)-4-(((1S,2R)-2-phenylcyclopropyl)-carbamoyl)-pyrrolidine-3-carboxamido)-dodecanoate]", "values": [{"measurement": "Emax", "setting": "[1]", "value": 100, "unit": "%"}, {"measurement": "EC50", "setting": "[1]; Table 1", "value": 1.4, "unit": "nM"}]}
{"smiles": "COC(=O)CCCCCCCCCNC(=O)[C@@H]1CN(C(=O)c2ccc(C(=O)N3C[C@@H](C(=O)N[C@H]4C[C@@H]4c4ccccc4)[C@H](C(=O)N[C@H]4C[C@@H]4c4ccccc4)C3)cc2)C[C@H]1C(=O)N[C@H]1C[C@@H]1c1ccccc1", "note": "[Compound 4, Methyl 10-((3S,4S)-1-(4-((3S,4S)-3,4-bis(((1S,2R)-2-phenylcyclopropyl)carbamoyl)pyrrolidine-1-carbonyl)-benzoyl)-4-(((1S,2R)-2-phenylcyclopropyl)-carbamoyl)-pyrrolidine-3-carboxamido)-decanoate]", "values": [{"measurement": "Emax", "setting": "[2]", "value": 100, "unit": "%"}]}
{"smiles": "COC(=O)CCCCCNC(=O)[C@@H]1CN(C(=O)c2ccc(C(=O)N3C[C@@H](C(=O)N[C@H]4C[C@@H]4c4ccccc4)[C@H](C(=O)N[C@H]4C[C@@H]4c4ccccc4)C3)cc2)C[C@H]1C(=O)N[C@H]1C[C@@H]1c1ccccc1", "note": "[Compound 6, Methyl 6-((3S,4S)-1-(4-((3S,4S)-3,4-bis(((1S,2R)-2-phenylcyclopropyl)carbamoyl)pyrrolidine-1-carbonyl)-benzoyl)-4-(((1S,2R)-2-phenylcyclopropyl)carbamoyl)-pyrrolidine-3-carboxamido)-hexanoate]", "values": [{"measurement": "EC50", "setting": "[2]; Table 1", "value": 45, "unit": "nM"}, {"measurement": "EC50", "setting": "[1]; Table 1", "value": 1100, "unit": "nM"}]}
{"smiles": "O=C(NCCCCCCCCCCCCO)[C@@H]1CN(C(=O)c2ccc(C(=O)N3C[C@@H](C(=O)N[C@H]4C[C@@H]4c4ccccc4)[C@H](C(=O)N[C@H]4C[C@@H]4c4ccccc4)C3)cc2)C[C@H]1C(=O)N[C@H]1C[C@@H]1c1ccccc1", "note": "[Compound 7, (3S,4S)-1-(4-((3S,4S)-3,4-Bis(((1S,2R)-2-phenyl-cyclopropyl)carbamoyl)pyrrolidine-1-carbonyl)-benzoyl)-N^3-(12-hydroxydodecyl)-N^4-((1S,2R)-2-phenyl-cyclo-propyl)pyrrolidine-3,4-dicarboxamide]", "values": [{"measurement": "Emax", "setting": "[2]", "value": 90, "unit": "%"}, {"measurement": "EC50", "setting": "[2]; Table 3", "value": 0.21, "unit": "nM"}, {"measurement": "Emax", "setting": "[1]", "value": 110, "unit": "%"}, {"measurement": "EC50", "setting": "[1]; Table 3", "value": 1.2, "unit": "nM"}]}
{"smiles": "O=C(NCCCCCCCCCCO)[C@@H]1CN(C(=O)c2ccc(C(=O)N3C[C@@H](C(=O)N[C@H]4C[C@@H]4c4ccccc4)[C@H](C(=O)N[C@H]4C[C@@H]4c4ccccc4)C3)cc2)C[C@H]1C(=O)N[C@H]1C[C@@H]1c1ccccc1", "note": "[Compound 8, (3S,4S)-1-(4-((3S,4S)-3,4-Bis(((1S,2R)-2-phenyl-cyclopropyl)carbamoyl)pyrrolidine-1-carbonyl)benzoyl)-N^3-(10-hydroxydecyl)-N^4-((1S,2R)-2-phenylcyclopropyl)-pyrrolidine-3,4-dicarboxamide]", "values": [{"measurement": "Emax", "setting": "[2]", "value": 90, "unit": "%"}, {"measurement": "Emax", "setting": "[1]", "value": 110, "unit": "%"}]}
{"smiles": "O=C(NCCCCCCCCO)[C@@H]1CN(C(=O)c2ccc(C(=O)N3C[C@@H](C(=O)N[C@H]4C[C@@H]4c4ccccc4)[C@H](C(=O)N[C@H]4C[C@@H]4c4ccccc4)C3)cc2)C[C@H]1C(=O)N[C@H]1C[C@@H]1c1ccccc1", "note": "[Compound 9, (3S,4S)-1-(4-((3S,4S)-3,4-Bis(((1S,2R)-2-phenyl-cyclopropyl)carbamoyl)pyrrolidine-1-carbonyl)-benzoyl)-N^3—(8-hydroxyoctyl)-N^4-((1S,2R)-2-phenyl-cyclopropyl)pyrrolidine-3,4-dicarboxamide]", "values": [{"measurement": "EC50", "setting": "[2]; Table 1", "value": 4.3, "unit": "nM"}, {"measurement": "EC50", "setting": "[1]; Table 1", "value": 93, "unit": "nM"}]}
{"smiles": "O=C(NCCCCCCO)[C@@H]1CN(C(=O)c2ccc(C(=O)N3C[C@@H](C(=O)N[C@H]4C[C@@H]4c4ccccc4)[C@H](C(=O)N[C@H]4C[C@@H]4c4ccccc4)C3)cc2)C[C@H]1C(=O)N[C@H]1C[C@@H]1c1ccccc1", "note": "[Compound 10, (3S,4S)-1-(4-((3S,4S)-3,4-Bis(((1S,2R)-2-phenyl-cyclo-propyl)carbamoyl)pyrrolidine-1-carbonyl)-benzoyl)-N^3-(6-hydroxyhexyl)-N^4-((1S,2R)-2-phenyl-cyclopropyl)-pyrrolidine-3,4-dicarboxamide]", "values": [{"measurement": "EC50", "setting": "[2]; Table 1", "value": 90, "unit": "nM"}, {"measurement": "EC50", "setting": "[1]; Table 1", "value": 180, "unit": "nM"}]}
{"smiles": "O=C(O)CCCCCCCCCCCNC(=O)[C@@H]1CN(C(=O)c2ccc(C(=O)N3C[C@@H](C(=O)N[C@H]4C[C@@H]4c4ccccc4)[C@H](C(=O)N[C@H]4C[C@@H]4c4ccccc4)C3)cc2)C[C@H]1C(=O)N[C@H]1C[C@@H]1c1ccccc1", "note": "[Compound 11, 12-((3S,4S)-1-(4-((3S,4S)-3,4-Bis(((1S,2R)-2-phenyl-cyclopropyl)carbamoyl)pyrrolidine-1-carbonyl)benzoyl)-4-(((1S,2R)-2-phenylcyclopropyl)carbamoyl)pyrrolidine-3-carboxamido)-dodecanoic acid]", "values": [{"measurement": "Emax", "setting": "[2]", "value": 100, "unit": "%"}, {"measurement": "EC50", "setting": "[2]; Table 1", "value": 3.4, "unit": "nM"}, {"measurement": "Emax", "setting": "[1]", "value": 110, "unit": "%"}, {"measurement": "EC50", "setting": "[1]; Table 1", "value": 280, "unit": "nM"}]}
{"smiles": "NC(=O)CCCCCCCCCCCNC(=O)[C@@H]1CN(C(=O)c2ccc(C(=O)N3C[C@@H](C(=O)N[C@H]4C[C@@H]4c4ccccc4)[C@H](C(=O)N[C@H]4C[C@@H]4c4ccccc4)C3)cc2)C[C@H]1C(=O)N[C@H]1C[C@@H]1c1ccccc1", "note": "[Compound 12, (3S,4S)—N^3-(12-Amino-12-oxododecyl)-1-(4-((3S,4S)-3,4-bis(((1S,2R)-2-phenylcyclopropyl)-carbamoyl)-pyrrolidine-1-carbonyl)benzoyl)-N^4-((1S,2R)-2-phenyl-cyclopropyl)pyrrolidine-3,4-dicarboxamide]", "values": [{"measurement": "Emax", "setting": "[2]", "value": 110, "unit": "%"}, {"measurement": "EC50", "setting": "[2]; Table 1", "value": 0.9, "unit": "nM"}, {"measurement": "Emax", "setting": "[1]", "value": 120, "unit": "%"}, {"measurement": "EC50", "setting": "[1]; Table 1", "value": 60, "unit": "nM"}]}
{"smiles": "CNC(=O)CCCCCCCCCCCNC(=O)[C@@H]1CN(C(=O)c2ccc(C(=O)N3C[C@@H](C(=O)N[C@H]4C[C@@H]4c4ccccc4)[C@H](C(=O)N[C@H]4C[C@@H]4c4ccccc4)C3)cc2)C[C@H]1C(=O)N[C@H]1C[C@@H]1c1ccccc1", "note": "[Compound 13, (3S,4S)-1-(4-((3S,4S)-3,4-Bis(((1S,2R)-2-phenylcyclo-propyl)carbamoyl)pyrrolidine-1-carbonyl)-benzoyl)-N^3-(12-(methylamino)-12-oxododecyl)-N^4-((1S,2R)-2-phenyl-cyclopropyl)pyrrolidine-3,4-dicarboxamide]", "values": [{"measurement": "Emax", "setting": "[2]", "value": 120, "unit": "%"}, {"measurement": "EC50", "setting": "[2]; Table 1", "value": 1, "unit": "nM"}, {"measurement": "Emax", "setting": "[1]", "value": 150, "unit": "%"}, {"measurement": "EC50", "setting": "[1]; Table 1", "value": 60, "unit": "nM"}]}
{"smiles": "CC(C)(C)OC(=O)CNC(=O)CCCCCCCCCCCNC(=O)[C@@H]1CN(C(=O)c2ccc(C(=O)N3C[C@@H](C(=O)N[C@H]4C[C@@H]4c4ccccc4)[C@H](C(=O)N[C@H]4C[C@@H]4c4ccccc4)C3)cc2)C[C@H]1C(=O)N[C@H]1C[C@@H]1c1ccccc1", "note": "[Compound 14, tert-Butyl (12-((3S,4S)-1-(4-((3S,4S)-3,4-bis(((1S,2R)-2-phenylcyclopropyl)carbamoyl)-pyrrolidine-1-carbonyl)-benzoyl)-4-(((1S,2R)-2-phenylcyclopropyl)carbamoyl)pyrrolidine-3-carboxamido)dodecanoyl)glycinate]", "values": [{"measurement": "Emax", "setting": "[2]", "value": 100, "unit": "%"}, {"measurement": "EC50", "setting": "[2]; Table 1", "value": 20, "unit": "nM"}, {"measurement": "Emax", "setting": "[1]", "value": 70, "unit": "%"}, {"measurement": "EC50", "setting": "[1]; Table 1", "value": 25, "unit": "nM"}]}
{"smiles": "O=C(O)CNC(=O)CCCCCCCCCCCNC(=O)[C@@H]1CN(C(=O)c2ccc(C(=O)N3C[C@@H](C(=O)N[C@H]4C[C@@H]4c4ccccc4)[C@H](C(=O)N[C@H]4C[C@@H]4c4ccccc4)C3)cc2)C[C@H]1C(=O)N[C@H]1C[C@@H]1c1ccccc1", "note": "[Compound 15, (12-((3S,4S)-1-(4-((3S,4S)-3,4-Bis(((1S,2R)-2-phenylcyclopropyl)carbamoyl)pyrrolidine-1-carbonyl)benzoyl)-4-(((1S,2R)-2-phenylcyclopropyl)carbamoyl)pyrrolidine-3-carboxamido)-dodecanoyl)glycine]", "values": [{"measurement": "Emax", "setting": "[2]", "value": 110, "unit": "%"}, {"measurement": "EC50", "setting": "[2]; Table 1", "value": 200, "unit": "nM"}, {"measurement": "Emax", "setting": "[1]", "value": 30, "unit": "%"}, {"measurement": "EC50", "setting": "[1]; Table 1", "value": 1200, "unit": "nM"}]}
{"smiles": "NCCCCCCCCCCCCNC(=O)[C@@H]1CN(C(=O)c2ccc(C(=O)N3C[C@@H](C(=O)N[C@H]4C[C@@H]4c4ccccc4)[C@H](C(=O)N[C@H]4C[C@@H]4c4ccccc4)C3)cc2)C[C@H]1C(=O)N[C@H]1C[C@@H]1c1ccccc1", "note": "[Compound 16, (3S,4S)—N^3-(12-Aminododecyl)-1-(4-((3S,4S)-3,4-bis-(((1S,2R)-2-phenylcyclopropyl)carbamoyl)-pyrrolidine-1-carbonyl)benzoyl)-N^4-((1S,2R)-2-phenylcyclopropyl)-pyrrolidine-3,4-dicarboxamide]", "values": [{"measurement": "Emax", "setting": "[2]", "value": 140, "unit": "%"}, {"measurement": "EC50", "setting": "[2]; Table 1", "value": 0.8, "unit": "nM"}, {"measurement": "Emax", "setting": "[1]", "value": 130, "unit": "%"}, {"measurement": "EC50", "setting": "[1]; Table 1", "value": 10, "unit": "nM"}]}
{"smiles": "CC(C)(C)OC(=O)CCOCCOCCOCCNC(=O)[C@@H]1CN(C(=O)c2ccc(C(=O)N3C[C@@H](C(=O)N[C@H]4C[C@@H]4c4ccccc4)[C@H](C(=O)N[C@H]4C[C@@H]4c4ccccc4)C3)cc2)C[C@H]1C(=O)N[C@H]1C[C@@H]1c1ccccc1", "note": "[Compound 28, tert-Butyl 1-((3S,4S)-1-(4-((3S,4S)-3,4-bis(((1S,2R)-2-phenylcyclopropyl)carbamoyl)pyrrolidine-1-carbonyl)-benzoyl)-4-(((1S,2R)-2-phenylcyclopropyl)carbamoyl)-pyrrolidin-3-yl)-1-oxo-5,8,11-trioxa-2-azatetradecan-14-oate]", "values": [{"measurement": "EC50", "setting": "[2]; Table 2", "value": 3.1, "unit": "nM"}]}
{"smiles": "COC(=O)CCOCCOCCOCCNC(=O)[C@@H]1CN(C(=O)c2ccc(C(=O)N3C[C@@H](C(=O)N[C@H]4C[C@@H]4c4ccccc4)[C@H](C(=O)N[C@H]4C[C@@H]4c4ccccc4)C3)cc2)C[C@H]1C(=O)N[C@H]1C[C@@H]1c1ccccc1", "note": "[Compound 29, Methyl 1-((3S,4S)-1-(4-((3S,4S)-3,4-bis(((1S,2R)-2-phenylcyclopropyl)carbamoyl)pyrrolidine-1-carbonyl)benzoyl)-4-(((1S,2R)-2-phenylcyclopropyl)carbamoyl)-pyrrolidin-3-yl)-1-oxo-5,8,11-trioxa-2-azatetradecan-14-oate]", "values": [{"measurement": "Emax", "setting": "[2]", "value": 110, "unit": "%"}, {"measurement": "EC50", "setting": "[2]; Table 2", "value": 40, "unit": "nM"}]}
